The results in this text go back to paper PMC12645998, “Optimization of VE607 to generate analogs with improved neutralization activities against SARS-CoV-2 variants” (Journal of Virology, 2025).

One series relates to 293T-ACE2 cells. Briefly: Cell viability test (CellTiter-Glo), 293T-ACE2. Conditions: concentrations up to 100 µM, 48 h.
As for `CCN(C)C[C@@H](O)COc1cc(Br)cc(OC[C@H](O)CN(C)CC)c1` [Compound 33], the “Toxicity in 293T-ACE2 cells” value is recorded as “no toxicity”.

Another series relates to SARS-CoV-2 XBB.1.5 Spike pseudovirus. Briefly: organism not typed. Format: cell-based. Particulars: read-out: IC50 XBB.1.5.
For the molecule `O[C@@H](COc1cccc(OC[C@H](O)CN2CCCCC2)c1)CN1CCCCC1` [(R,R)-VE607, reference compound], the IC50 was found to be 0.99 µM.
For `CCN(C)C[C@@H](O)COc1cc(Br)cc(OC[C@H](O)CN(C)CC)c1` [Compound 33], the IC50 came to 2.43 µM.

For another series, the system named is pseudoviral particles carrying SARS-CoV-1 S. Briefly: microbe, parasite or virus in culture. The format is cell-based. Conditions: Severe acute respiratory syndrome coronavirus, 293T/ACE2, read-out: IC50 SARS-CoV-1.
As to `O[C@@H](COc1cccc(OC[C@H](O)CN2CCCCC2)c1)CN1CCCCC1` [(R,R)-VE607, reference compound], the IC50 was found to be 0.8 µM.
The same measure, in the same setting: to `CCN(C)C[C@@H](O)COc1cc(Br)cc(OC[C@H](O)CN(C)CC)c1` [Compound 33] belongs 1.44 µM.

The series is the same for the next values; noted with them: read-out: IC50 SARS-CoV-1.
`O[C@@H](COc1cccc(OC[C@H](O)CN2CCCCC2)c1)CN1CCCCC1` [(R,R)-VE607, reference compound]: the IC50 is 0.89 µM.
Still for that read-out and setting: the figure for `CCN(C)C[C@@H](O)COc1cc(Br)cc(OC[C@H](O)CN(C)CC)c1` [Compound 33] is 1.3 µM.

In another series the test system is SARS-CoV-2 HK.3 Spike pseudovirus. Briefly: organism not typed. Particulars: read-out: IC50 HK.3. The format is cell-based.
Take `O[C@@H](COc1cccc(OC[C@H](O)CN2CCCCC2)c1)CN1CCCCC1` [(R,R)-VE607, reference compound]: the IC50 was determined as 3.88 µM.
`CCN(C)C[C@@H](O)COc1cc(Br)cc(OC[C@H](O)CN(C)CC)c1` [Compound 33]: the IC50 was 2.35 µM.

The test system of the next series is pseudoviral particles carrying VSV-G. Briefly: microbe, parasite or virus in culture. Format: cell-based. Conditions: Vesicular stomatitis virus, 293T/ACE2, read-out: IC50 VSV-G.
As to `O[C@@H](COc1cccc(OC[C@H](O)CN2CCCCC2)c1)CN1CCCCC1` [(R,R)-VE607, reference compound], the IC50 was above 100 µM.
The same measure, in the same setting: to `CCN(C)C[C@@H](O)COc1cc(Br)cc(OC[C@H](O)CN(C)CC)c1` [Compound 33] belongs above 100 µM.

The series is the same for the next values; noted with them: Vesicular stomatitis virus, 293T/ACE2, read-out: IC50 VSVG.
For the molecule `O[C@@H](COc1cccc(OC[C@H](O)CN2CCCCC2)c1)CN1CCCCC1` [(R,R)-VE607, reference compound], the IC50 is above 100 µM.
On the same count and under the same terms, the figure for `CCN(C)C[C@@H](O)COc1cc(Br)cc(OC[C@H](O)CN(C)CC)c1` [Compound 33] is above 100 µM.

The test system of another series is SARS-CoV-2 EG.5.1 Spike pseudovirus. Put plainly: organism not typed. The format is cell-based. Conditions: read-out: IC50 EG.5.1.
Regarding `O[C@@H](COc1cccc(OC[C@H](O)CN2CCCCC2)c1)CN1CCCCC1` [(R,R)-VE607, reference compound], the IC50 came to 1.31 µM.
As for `CCN(C)C[C@@H](O)COc1cc(Br)cc(OC[C@H](O)CN(C)CC)c1` [Compound 33], the IC50 stood at 1.82 µM.

A further series deals with SARS-CoV-2 BA.2.86 Spike pseudovirus. Briefly: organism not typed. Format: cell-based. Particulars: read-out: IC50 BA.2.86.
For `O[C@@H](COc1cccc(OC[C@H](O)CN2CCCCC2)c1)CN1CCCCC1` [(R,R)-VE607, reference compound], the IC50 is 2.64 µM.
Same read-out and setting: to `CCN(C)C[C@@H](O)COc1cc(Br)cc(OC[C@H](O)CN(C)CC)c1` [Compound 33] belongs 2.97 µM.

Another series has as its system authentic SARS-CoV-2 XBB.1. Briefly: microbe, parasite or virus in culture. Particulars: Severe acute respiratory syndrome coronavirus 2, Vero C1008, read-out: IC50 authentic SARS-CoV-2 XBB.1. Format: cell-based.
In the case of `O[C@@H](COc1cccc(OC[C@H](O)CN2CCCCC2)c1)CN1CCCCC1` [(R,R)-VE607, reference compound], the IC50 is 58.6 µM.
For the molecule `CCN(C)C[C@@H](O)COc1cc(Br)cc(OC[C@H](O)CN(C)CC)c1` [Compound 33], the IC50 was found to be 17.1 µM.

A further series deals with SARS-CoV-2 B.1.1.7 Spike pseudovirus. Briefly: organism not typed. Conditions: read-out: IC50 B.1.1.7. Format: cell-based.
For `O[C@@H](COc1cccc(OC[C@H](O)CN2CCCCC2)c1)CN1CCCCC1` [(R,R)-VE607, reference compound], the IC50 was 1.17 µM.
With `CCN(C)C[C@@H](O)COc1cc(Br)cc(OC[C@H](O)CN(C)CC)c1` [Compound 33], the IC50 worked out at 1.44 µM.

A further series relates to SARS-CoV-2 XEC Spike pseudovirus. Briefly: organism not typed. The format is cell-based. Conditions: read-out: IC50 XEC.
Regarding `O[C@@H](COc1cccc(OC[C@H](O)CN2CCCCC2)c1)CN1CCCCC1` [(R,R)-VE607, reference compound], the IC50 was 3.9 µM.
On the same count and under the same terms, the figure for `CCN(C)C[C@@H](O)COc1cc(Br)cc(OC[C@H](O)CN(C)CC)c1` [Compound 33] is 2.39 µM.

Another series has as its system Vero-E6 cells. Briefly: Cell viability test (CellTiter-Glo), Vero-E6. Conditions: concentrations up to 100 µM, 48 h.
As to `CCN(C)C[C@@H](O)COc1cc(Br)cc(OC[C@H](O)CN(C)CC)c1` [Compound 33], the “Toxicity in Vero-E6 cells” value is recorded as “no toxicity”.

In a further series the test system is SARS-CoV-2 KP.3.1.1 Spike pseudovirus. Briefly: organism not typed. The format is cell-based. Particulars: read-out: IC50 KP.3.1.1.
For the molecule `O[C@@H](COc1cccc(OC[C@H](O)CN2CCCCC2)c1)CN1CCCCC1` [(R,R)-VE607, reference compound], the IC50 came out at 4.68 µM.
Same read-out and setting: the figure for `CCN(C)C[C@@H](O)COc1cc(Br)cc(OC[C@H](O)CN(C)CC)c1` [Compound 33] is 2.99 µM.

Another series deals with SARS-CoV-2 BA.4/5 Spike pseudovirus. Briefly: organism not typed. Format: cell-based. Conditions: read-out: IC50 BA.4/5.
Turning to `O[C@@H](COc1cccc(OC[C@H](O)CN2CCCCC2)c1)CN1CCCCC1` [(R,R)-VE607, reference compound], the IC50 came to 5.78 µM.
`CCN(C)C[C@@H](O)COc1cc(Br)cc(OC[C@H](O)CN(C)CC)c1` [Compound 33]: the IC50 was found to be 2.81 µM.

In another series the test system is SARS-CoV-2 JN.1 Spike pseudovirus. Briefly: organism not typed. Format: cell-based. Particulars: read-out: IC50 JN.1.
In the case of `O[C@@H](COc1cccc(OC[C@H](O)CN2CCCCC2)c1)CN1CCCCC1` [(R,R)-VE607, reference compound], the IC50 was 6.4 µM.
Same read-out and setting: to `CCN(C)C[C@@H](O)COc1cc(Br)cc(OC[C@H](O)CN(C)CC)c1` [Compound 33] belongs 2.02 µM.

In the next series the test system is SARS-CoV-2 XBB.1.16 Spike pseudovirus. Briefly: organism not typed. The format is cell-based. Particulars: read-out: IC50 XBB.1.16.
In the case of `O[C@@H](COc1cccc(OC[C@H](O)CN2CCCCC2)c1)CN1CCCCC1` [(R,R)-VE607, reference compound], the IC50 was determined as 2.03 µM.
On the same count and under the same terms, the figure for `CCN(C)C[C@@H](O)COc1cc(Br)cc(OC[C@H](O)CN(C)CC)c1` [Compound 33] is 2.13 µM.

The test system of another series is pseudoviral particles bearing the Spike glycoprotein from SARS-CoV-2. Briefly: microbe, parasite or virus in culture. Particulars: Severe acute respiratory syndrome coronavirus 2, 293T/ACE2, read-out: IC50 SARS-CoV-2, Table 1; pseudovirus, 293T-ACE2 cells, compounds up to 100 µM. The format is cell-based.
For the molecule `O[C@@H](COc1cccc(OC[C@H](O)CN2CCCCC2)c1)CN1CCCCC1` [(R,R)-VE607, reference compound], the IC50 worked out at 0.98 µM.
The same measure, in the same setting: the figure for `CCN(C)C[C@@H](O)COc1cc(Br)cc(OC[C@H](O)CN(C)CC)c1` [Compound 33] is 1.71 µM.

A further series deals with SARS-CoV-2 (Wuhan strain) ectodomain SΔTM trimers.
Experiment: not given
Conditions: 0.1 µM labeled Spike; 50 µM compound, 0.3 µM CV3-13, 0.6 µM ACE2; unbound Spike 40% ± 2%.
Consider `CCN(C)C[C@@H](O)COc1cc(Br)cc(OC[C@H](O)CN(C)CC)c1` [Compound 33], for which the RBD-up conformation occupancy is 61% ± 2%.
